In PMC7281280, “Is the Way to Fight Cancer Paved with Gold? Metal-Based Carbene Complexes with Multiple and Fascinating Biological Features” (Pharmaceuticals, 2020):

Assays:
[1] = test system: HeLa human epithelial cervix carcinoma cells; assay: MTT cell viability, HeLa; format: cell-based; conditions: 72 h, mean ± SD
Method: (§1) The six cell lines used in this work (MCF-7, MDA-MB-231, HeLa, […], MCF-10A and Hek-293) were purchased from American Type Culture Collection (ATCC, Manassas, VA, USA). MCF-7 human breast cancer cells, estrogen receptor (ER)-positive, were maintained in Dulbecco’s modified Eagle’s medium/nutrient mixture Ham F-12 (DMEM/F12), supplemented with 10% fetal bovine serum (FBS) and 100 U mL^−1 penicillin/streptomycin. MCF-10A human mammary epithelial cells, were cultured in DMEM/F12 medium, supplemented with 5% horse serum (HS, Thermo Fisher Scientific, Milan, Italy), 100 U mL^−1 penicillin/streptomycin, […] hydrocortisone, 20 ng mL^−1 human epidermal growth factor (hEGF), […] insulin, and […] cholera enterotoxin (Sigma–Aldrich, Milan, Italy). MDA-MB-231 human breast cancer cells, known as triple-negative cells (i.e., not overexpressing human epidermal growth factor receptor 2 (HER2), estrogen and progesterone receptors), were cultured in DMEM/F12 supplemented with 5% FBS, 1% L-glutamine and 100 U mL^−1 penicillin/streptomycin. HeLa human epithelial cervix carcinoma cells, estrogen receptor (ER)-negative, and […] human endometrial adenocarcinoma cells, estrogen receptor (ER)-positive, were maintained in minimum essential Eagle’s Medium (MEM), supplemented with 10% FBS, 1% L-glutamine, 100 U mL^−1 penicillin/streptomycin and 1% Non-Essential Amino Acids (NEAA). Hek-293 human embryonic kidney epithelial cells were cultured in DMEM high glucose (4.5 g L^−1), supplemented with 10% FBS, 1% L-glutamine and 100 U mL^–1 penicillin/streptomycin. Cells were maintained at 37 °C in a humidified atmosphere of 95% air and 5% CO2 and periodically screened for contamination.
(§2) Cell viability has been determined using the 3-(4,5-dimethylthiazol-2-y1)-2,5-diphenyltetrazolium bromide (MTT, Sigma–Aldrich, Milan, Italy) assay. Cells have been seeded on 48-well plates and grown in complete medium. Before being treated, cells have been starved in serum free medium for 24 h for allowing cell cycle synchronization. […] Data are representative of three independent experiments; standard deviations (SD) have been shown.

[2] = test system: MCF-10A human mammary epithelial cells; assay: MTT cell viability, normal MCF-10A; format: cell-based; conditions: 72 h, mean ± SD
Method: as §1, §2

MDA-MB-231 cells = assay: Immunofluorescence of microtubules, MDA-MB-231; format: cell-based, human; conditions: at IC50 value, 24 h
Method: Cells were grown on glass coverslips in full media, then serum-deprived for 24 h and exposed to compounds for 24 h (concentration equal to its IC50 value). Then, the cells after PBS-washed, were fixed with cold methanol (15 min/−20 °C) and incubated with primary antibody, diluted in blocking solution (4 °C/overnight), as previously described. The mouse anti-β-Actin (69879) and the rabbit anti-β tubulin (9104) were purchased from Santa Cruz Biotechnology and used at 1:100 dilution. Coverslips were then washed 3 times with PBS, then fixed cells were incubated with the secondary antibody Alexa Fluor® 568 conjugate goat-anti-mouse and Alexa Fluor® 488 conjugate goat-anti-rabbit (1:500, Thermo Fisher Scientific, Waltham, MA, USA). Nuclei were stained using DAPI (Sigma–Aldrich, Mila, Italy) for 10 min at a concentration of 0.2 μg/mL then washed 3 times with PBS. Fluorescence was detected using a fluorescence microscope (Leica DM 6000). LAS-X software was used to acquire and process all images.
Figure 5 Immunofluorescence studies. […] Panels A: DAPI, excitation/emission wavelength 350 nm/460 nm; panels B: β-tubulin (Alexa Fluor® 488) excitation/emission wavelength 490 nm/515 nm; panels C show a merge. Representative fields are shown.

[3] = target: T1, human topoisomerase I (hTopo I) (Homo sapiens, UniProt P11387); assay: Human topoisomerase I relaxation assay; format: biochemical; conditions: 1 μM
T1 construct: purchased TopoGEN, Port Orange, FL, USA
T1 sequence (P11387 1-765): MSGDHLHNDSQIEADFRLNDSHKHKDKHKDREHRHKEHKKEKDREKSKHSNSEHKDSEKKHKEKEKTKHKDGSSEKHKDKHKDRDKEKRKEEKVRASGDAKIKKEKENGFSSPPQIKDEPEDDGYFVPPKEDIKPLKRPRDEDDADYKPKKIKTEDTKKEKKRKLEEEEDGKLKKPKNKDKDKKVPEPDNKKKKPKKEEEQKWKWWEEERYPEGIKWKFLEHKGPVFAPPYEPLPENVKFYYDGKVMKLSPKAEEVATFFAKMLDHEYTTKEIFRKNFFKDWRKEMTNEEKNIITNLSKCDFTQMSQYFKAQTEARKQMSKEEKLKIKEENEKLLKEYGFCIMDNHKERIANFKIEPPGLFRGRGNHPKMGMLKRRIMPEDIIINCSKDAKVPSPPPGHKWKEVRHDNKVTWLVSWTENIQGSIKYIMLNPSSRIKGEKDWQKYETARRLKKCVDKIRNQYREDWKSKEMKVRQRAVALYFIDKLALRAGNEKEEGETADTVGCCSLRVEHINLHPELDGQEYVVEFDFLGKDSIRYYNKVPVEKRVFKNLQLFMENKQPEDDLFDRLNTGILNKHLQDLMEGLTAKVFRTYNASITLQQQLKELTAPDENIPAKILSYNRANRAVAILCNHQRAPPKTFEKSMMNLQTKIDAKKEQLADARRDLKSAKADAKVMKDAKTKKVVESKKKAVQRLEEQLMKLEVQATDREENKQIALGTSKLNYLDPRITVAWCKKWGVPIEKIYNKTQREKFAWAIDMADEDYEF
Method: Topoisomerases are essential enzymes involved in DNA metabolism, because of their ability to cause temporary DNA strand breakage, and tightly involved, if overexpressed, in cancer development.
hTopo I relaxation assays have been performed in a final volume of […], as reported by Iacopetta et al., incubating […] of supercoiled plasmid pHOT1 in Tris-EDTA (TE) buffer (TopoGEN, Port Orange, FL, USA) with tested compounds and recombinant hTopo I (2 units) (TopoGEN, Port Orange, FL, USA) for 1h at 37 °C. The obtained solution has been loaded in a 1% agarose gel containing 1× Tris-acetate-EDTA (TAE) buffer without ethidium bromide (EB). Agarose gel has been stained using 1× TAE buffer with EB ([…]) for 30 min and after washed with distilled water for 15 min. At the end, it has been visualized by using a ultraviolet (UV) transilluminator. The experiment was performed in triplicate.
Figure 7 hTopoI assay.

caspase-8 = conditions: 5 μM, 24 h, MDA-MB-231 cells
caspases 3/7 = assay: Caspase-Glo assay, caspases 3/7; conditions: 5 μM, 24 h, MDA-MB-231 cells

C[n+]1c(Cl)c(Cl)n(CC(O)c2ccccc2)[c]1[Au-][c]1n(CC(O)c2ccccc2)c(Cl)c(Cl)[n+]1C.[Cl][Au-][Cl] (racemic) [AuL7, bis-[4,5-dichloro-(N-methyl-N’(2-hydroxy-2-phenyl)ethyl-imidazole-2-ylidene)gold(I)]^+[dichloro-gold]^−]
IC50 [1]: 31.9 ± 0.5 µM
IC50 [2]: > 200 µM
IC50 MCF-10A [2]: inactive
effect on microtubule network, MDA-MB-231 (MDA-MB-231 cells): vinblastine-like mode of action
inhibition of hTopo I supercoil relaxing activity [3]: totally inhibition
caspase-8 activity (caspase-8): unchanged
caspases 3/7 activity (caspases 3/7): clear increase
